# In PMC5740067 (Scientific Reports, 2017):
# Read-outs that look alike come from different tables or passages of the source.
# Key:
# OccJ N202D = target: T1, OccJ N202D (Agrobacterium tumefaciens, UniProt P0A4F8, N202D); format: binding; settings: ITC, 20 °C
# T1 construct: The mature LAO expression plasmid, LAO-Q122A, OccJ-S91G and OccJ-N202D were chemically synthesized; pET-28a); host or cells: E. coli BL21
# Protocol: (§1) Isothermal titration microcalorimetry experiments were performed with an ITC200 isothermal titration calorimeter from MicroCal (GE Healthcare). The experiments were carried out at 20 °C. Protein concentration in the microcalorimeter cell (0.2 mL) varied from 20 to 150 µM. Nineteen injections of 2 µL of ligand solution (amino acids, opines and octopine derivatives) at concentration ranging from 240 µM to 1.5 mM were performed at intervals of 180 s while stirring at 500 rpm. The experimental data were fitted to theoretical titration curves with software supplied by MicroCal (ORIGIN®). This software uses the relationship between the heat generated by each injection and ΔH (enthalpy change in kcal/mol), Ka (the association binding constant in M^−1), n (the number of binding sites), total protein concentration and free and total ligand concentrations.
# OccJ WT [1] = target: T2, OccJ WT (Agrobacterium tumefaciens, UniProt P0A4F8); experiment: biochemical; format: binding
# T2 construct: The mature PBP OccJ (256 aa without the signal peptide) expression plasmid was obtained by cloning the occJ gene lacking the first twenty residues; hexahistidine (C); made in house; host or cells: E. coli BL21
# Protocol: (§2) Binding of ligands to OccJ, NocT, LAO and protein mutants was monitored by autofluorescence by exciting the protein at a wavelength of 295 nm and monitoring the quenching of fluorescence emission of tryptophans at 335 nm. All experiments were performed at 20 °C in 96 wells plates (1/2 Area Plate-96F, Perkin Elmer) using Tecan Infinite M1000 reader (Tecan), in 50 mM Tris-HCl pH 8.0, 150 mM NaCl buffer with a fixed amount of proteins (1 µM) and increasing concentrations of ligand. […] The data were analysed using Origin® 7 software and fitted to the equation f = ΔFluorescencemax * abs(x)/(K D + abs(x)).
# NocT WT [2] = target: T3, NocT WT (Agrobacterium fabrum, UniProt P35120); settings: F/ITC; amino acids; ref [6]; cited from earlier work
# T3 construct: Cloning of mature OccJ, NocT-G97S, OccJ-S91G, OccJ-N202D, LAO and LAO-Q122A; made in house
# OccJ WT [3] = target: T2, OccJ WT; experiment: OccJ WT ligand binding, isothermal titration microcalorimetry; settings: ITC, 20 °C
# Protocol: as §1
# LAO Q122A = target: T4, LAO Q122A (Salmonella typhimurium, UniProt P02911, Q144A); experiment: LAO Q122A ligand binding, ITC; design: species or system Salmonella enterica
# T4 construct: The mature LAO expression plasmid, LAO-Q122A, OccJ-S91G and OccJ-N202D were chemically synthesized; pET-28a); host or cells: E. coli BL21
# Protocol: as §1
# OccJ S91G = target: T5, OccJ S91G (Agrobacterium tumefaciens, UniProt P0A4F8, S91G); experiment: OccJ S91G ligand binding, fluorescence titration; settings: intrinsic protein fluorescence titration; 20 °C; pH 8.0
# T5 construct: The mature LAO expression plasmid, LAO-Q122A, OccJ-S91G and OccJ-N202D were chemically synthesized; pET-28a); host or cells: E. coli BL21
# Protocol: as §2
# LAO WT = target: T6, LAO WT (Salmonella typhimurium, UniProt P02911); experiment: biochemical; format: binding, Salmonella enterica
# T6 construct: The mature LAO expression plasmid, LAO-Q122A, OccJ-S91G and OccJ-N202D were chemically synthesized; pET-28a); host or cells: E. coli BL21
# Protocol: as §1
# LAO = target: LAO; design: method as in PMID 1400387; settings: ref [20]; cited from earlier work
# NocT WT [4] = target: T3, NocT WT; format: binding, Agrobacterium tumefaciens; settings: fluorescence titration; 20 °C; pH 8.0; octopine family members and analogues; read-out: Kd (F)
# Protocol: as §2
# NocT WT [5] = target: T3, NocT WT; format: binding, Agrobacterium tumefaciens; settings: ITC, 20 °C
# Protocol: as §1
# [6] = intrinsic protein fluorescence titration, 20 °C, 50 mM Tris-HCl pH 8.0, 150 mM NaCl, 1 µM protein
# [7] = intrinsic protein fluorescence titration, 20 °C, 50 mM Tris-HCl pH 8.0, 150 mM NaCl, 1 µM protein, read-out: K D (F)
# T1 sequence (P0A4F8 21-276 N202D): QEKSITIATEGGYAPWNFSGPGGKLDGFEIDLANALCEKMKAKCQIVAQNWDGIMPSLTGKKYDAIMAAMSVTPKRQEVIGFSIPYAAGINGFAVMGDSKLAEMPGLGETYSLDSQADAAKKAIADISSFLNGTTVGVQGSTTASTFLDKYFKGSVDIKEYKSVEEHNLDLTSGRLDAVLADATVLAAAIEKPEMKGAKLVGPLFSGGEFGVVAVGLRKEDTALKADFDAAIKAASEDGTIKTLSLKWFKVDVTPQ
# T3 sequence (P35120 26-283): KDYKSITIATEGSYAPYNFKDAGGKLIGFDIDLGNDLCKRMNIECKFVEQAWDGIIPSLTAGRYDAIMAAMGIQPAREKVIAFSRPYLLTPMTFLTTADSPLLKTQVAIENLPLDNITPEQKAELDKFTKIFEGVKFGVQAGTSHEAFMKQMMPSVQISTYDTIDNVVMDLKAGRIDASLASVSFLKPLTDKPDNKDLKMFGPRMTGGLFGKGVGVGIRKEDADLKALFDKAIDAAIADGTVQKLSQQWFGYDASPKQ
# T2 sequence (P0A4F8 21-276): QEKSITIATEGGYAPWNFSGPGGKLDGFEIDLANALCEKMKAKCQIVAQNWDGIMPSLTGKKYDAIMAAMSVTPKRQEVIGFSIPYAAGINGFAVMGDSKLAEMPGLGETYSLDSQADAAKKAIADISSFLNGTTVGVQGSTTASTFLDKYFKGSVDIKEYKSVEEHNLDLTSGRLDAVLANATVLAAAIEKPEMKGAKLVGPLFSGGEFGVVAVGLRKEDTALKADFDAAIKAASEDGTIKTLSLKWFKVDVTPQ
# T4 sequence (P02911 23-260 Q144A): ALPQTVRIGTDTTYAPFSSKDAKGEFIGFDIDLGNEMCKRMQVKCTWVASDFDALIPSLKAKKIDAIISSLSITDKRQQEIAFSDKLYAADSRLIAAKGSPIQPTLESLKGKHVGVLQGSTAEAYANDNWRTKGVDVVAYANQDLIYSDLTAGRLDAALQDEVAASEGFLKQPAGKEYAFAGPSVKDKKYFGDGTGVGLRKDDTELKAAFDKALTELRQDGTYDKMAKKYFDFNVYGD
# T6 sequence (P02911 23-260): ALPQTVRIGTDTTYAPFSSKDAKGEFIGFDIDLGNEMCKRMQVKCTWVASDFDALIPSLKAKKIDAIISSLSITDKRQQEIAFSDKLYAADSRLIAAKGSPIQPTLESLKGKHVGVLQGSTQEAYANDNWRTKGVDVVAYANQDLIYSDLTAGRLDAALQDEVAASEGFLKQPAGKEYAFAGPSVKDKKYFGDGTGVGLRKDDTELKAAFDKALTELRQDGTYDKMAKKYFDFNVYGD
# T5 sequence (P0A4F8 21-276 S91G): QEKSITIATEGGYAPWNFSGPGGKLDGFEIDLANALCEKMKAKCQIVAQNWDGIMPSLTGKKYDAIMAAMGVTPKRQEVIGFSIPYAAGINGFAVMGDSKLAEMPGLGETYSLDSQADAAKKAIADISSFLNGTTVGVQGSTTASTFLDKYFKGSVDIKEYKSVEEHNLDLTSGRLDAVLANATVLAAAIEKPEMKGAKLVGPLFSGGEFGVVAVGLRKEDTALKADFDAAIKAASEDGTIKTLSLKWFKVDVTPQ
Compound,Kd (OccJ WT [1]) [µM],"K D, amino acids (NocT WT [2])",Enthalpy (ΔH) (OccJ WT [3]) [kJ/mol],Entropic contribution (-TΔS) (OccJ WT [3]) [kJ/mol],Entropy (ΔS) (OccJ WT [3]) [cal/mol/deg],Free enthalpy (ΔG) (OccJ WT [3]) [kJ/mol],Kd (OccJ WT [3]) [µM],K D (F) (OccJ S91G),previous reported affinity (LAO),K D (F) (OccJ WT [1]; [6]),Kd (OccJ WT [1]; [7]) [µM],Kd (NocT WT [4]) [µM],also measured
N=C(N)NCCC[C@H](N)C(=O)O [L-arginine],7.2 ± 1,does not interact,-17.61,-7.343,5.99,-24.95,35.7,can no longer bind,nanomolar range,,,,"Enthalpy (ΔH) (OccJ N202D): -2.64 kJ/mol; Entropic contribution (-TΔS) (OccJ N202D): -23.83 kJ/mol; Entropy (ΔS) (OccJ N202D): 19.3 cal/mol/deg; Free enthalpy (ΔG) (OccJ N202D): -26.48 kJ/mol; Kd (LAO Q122A): 0.12 ± 0.01 µM; fold lower affinity of LAO-Q122A compared with WT (LAO Q122A; ITC): 5 fold; Enthalpy (ΔH) (LAO Q122A; ITC, 20 °C): -28.67 kJ/mol; Entropic contribution (-TΔS) (LAO Q122A; ITC, 20 °C): -10.18 kJ/mol; Entropy (ΔS) (LAO Q122A; ITC, 20 °C): 8.3 cal/mol/deg; Free enthalpy (ΔG) (LAO Q122A; ITC, 20 °C): -38.85 kJ/mol; Kd (LAO WT): 0.024 ± 0.002 µM; Enthalpy (ΔH) (LAO WT; ITC, 20 °C): -45.647 kJ/mol; Entropic contribution (-TΔS) (LAO WT; ITC, 20 °C): 2.94 kJ/mol; Entropy (ΔS) (LAO WT; ITC, 20 °C): -2.4 cal/mol/deg; Free enthalpy (ΔG) (LAO WT; ITC, 20 °C): -42.706 kJ/mol"
NCCCC[C@H](N)C(=O)O [L-lysine],7.5 ± 2.1,does not interact,-20.59,-2.7,2.20,-23.28,71,can no longer bind,nanomolar range,,,,
N[C@@H](Cc1c[nH]cn1)C(=O)O [histidine],,,,,,,,,,No fluorescence intensity change was detected,,,
CC(N[C@@H](Cc1cnc[nH]1)C(=O)O)C(=O)O (some centres unmarked) [histopine],,,-3.57,-15.94,13,-19.51,326,,,micromolar range,33.1 ± 3.5,84.4 ± 6.7,
N=C(N)NCCCC[C@H](NCC(=O)O)C(=O)O [homo-noroctopine],,,-17.22,-9.234,7.53,-26.45,19.3 ± 1.4,,,,4.63 ± 0.42,21.3 ± 2.1,Enthalpy (ΔH) (NocT WT [5]): -5 kJ/mol; Entropic contribution (-TΔS) (NocT WT [5]): -18.03 kJ/mol; Entropy (ΔS) (NocT WT [5]): 14.7 cal/mol/deg; Free enthalpy (ΔG) (NocT WT [5]): -23.03 kJ/mol; Kd (NocT WT [5]): 79 ± 14 µM
C[C@@H](N[C@@H](CCCCN)C(=O)O)C(=O)O [lysopine],,,-20.22,-18.64,15.2,-38.86,0.11 ± 0.02,,,,0.14 ± 0.01,11.2 ± 3.5,"Kd (OccJ WT [1]; fluorescence titration, read-out: apparent dissociation constant K D): 0.14 ± 0.01 µM"
